Usually half-life stands for how long it takes for the measured level to halve. The term IC50 denotes the concentration that gives 50% inhibition. Low values mean inhibition by little substance, high ones a need for much substance.

Structures are written as SMILES. The source made the active and inactive calls. No cut-off for these calls is given here.

In one series the test system is Plasmodium berghei. The series can be described thus: Antimalarial activity against Plasmodium berghei infected in mouse assessed as suppression in parasitemia at 33.3 mg/kg, po dosed once daily on days 0, 1, and 2 days post infection measured on day 5 post infection relative to untreated control. The class given is functional.
Details: not given
As for `CCN(CC)CCCC(C)Nc1ccnc2cc(Cl)ccc12` (stereo not drawn) [CHLOROQUINE], the Activity was 100%.

A further series deals with Plasmodium berghei. Put plainly: Antimalarial activity against Plasmodium berghei infected in mouse assessed as suppression in parasitemia at 11.1 mg/kg, po dosed once daily on days 0, 1, and 2 days post infection measured on day 5 post infection relative to untreated control.
Details: not given
In kind it is functional.
Turning to `CCN(CC)CCCC(C)Nc1ccnc2cc(Cl)ccc12` (stereo not drawn) [CHLOROQUINE], the Activity amounted to 100%.

A further series deals with Plasmodium berghei. Put plainly: Antimalarial activity against Plasmodium berghei infected in mouse assessed as suppression in parasitemia at 33.3 mg/kg, ip dosed once daily on days 0, 1, and 2 days post infection measured on day 5 post infection relative to untreated control. In kind it is functional.
Details: not given
On to `Cc1cc(NCc2cc(Nc3ccnc4cc(Cl)ccc34)ccc2F)nc(N2CCN(C)CC2)n1`, for which the Activity was determined as 100%.

A further series deals with Plasmodium berghei. The series can be described thus: Antimalarial activity against Plasmodium berghei infected in mouse assessed as suppression in parasitemia at 11.1 mg/kg, ip dosed once daily on days 0, 1, and 2 days post infection measured on day 5 post infection relative to untreated control.
Details: not given
In kind it is functional.
Regarding `Cc1cc(NCc2cc(Nc3ccnc4cc(Cl)ccc34)ccc2F)nc(N2CCN(C)CC2)n1`, the Activity is 91.9%.

A further series has as its system Plasmodium berghei. The series can be described thus: Antimalarial activity against Plasmodium berghei infected in mouse assessed as suppression in parasitemia at 33.3 mg/kg, po dosed once daily on days 0, 1, and 2 days post infection measured on day 7 post infection relative to untreated control. In kind it is functional.
Details: not given
`CCN(CC)CCCC(C)Nc1ccnc2cc(Cl)ccc12` (stereo not drawn) [CHLOROQUINE]: the Activity was 100%.

In another series the test system is Plasmodium berghei. The series can be described thus: Antimalarial activity against Plasmodium berghei infected in mouse assessed as suppression in parasitemia at 11.1 mg/kg, po dosed once daily on days 0, 1, and 2 days post infection measured on day 7 post infection relative to untreated control. The class given is functional.
Details: not given
`CCN(CC)CCCC(C)Nc1ccnc2cc(Cl)ccc12` (stereo not drawn) [CHLOROQUINE]: the Activity amounted to 99.2%.

In the next series the test system is Plasmodium berghei. Put plainly: Antimalarial activity against Plasmodium berghei infected in mouse assessed as suppression in parasitemia at 33.3 mg/kg, ip dosed once daily on days 0, 1, and 2 days post infection measured on day 7 post infection relative to untreated control. The class given is functional.
Details: not given
Regarding `Cc1cc(NCc2cc(Nc3ccnc4cc(Cl)ccc34)ccc2F)nc(N2CCN(C)CC2)n1`, the Activity is recorded as 100%.

A further series deals with Plasmodium berghei. The series can be described thus: Antimalarial activity against Plasmodium berghei infected in mouse assessed as suppression in parasitemia at 11.1 mg/kg, ip dosed once daily on days 0, 1, and 2 days post infection measured on day 7 post infection relative to untreated control.
Details: not given
In kind it is functional.
Consider `Cc1cc(NCc2cc(Nc3ccnc4cc(Cl)ccc34)ccc2F)nc(N2CCN(C)CC2)n1`, for which the Activity was determined as 92.9%.

In the next series the test system is Plasmodium berghei. Put plainly: Antimalarial activity against Plasmodium berghei infected in mouse assessed as host survival at 33.3 mg/kg, po dosed once daily on days 0, 1, and 2 days post infection measured on day 28 post infection relative to untreated control. The class given is functional, organism-based.
Details: not given
For `CCN(CC)CCCC(C)Nc1ccnc2cc(Cl)ccc12` (stereo not drawn) [CHLOROQUINE], the result was Active.

Another series concerns Plasmodium berghei. The series can be described thus: Antimalarial activity against Plasmodium berghei infected in mouse assessed as host survival at 11.1 mg/kg, po dosed once daily on days 0, 1, and 2 days post infection measured on day 28 post infection relative to untreated control. The class given is functional, organism-based.
Details: not given
As for `CCN(CC)CCCC(C)Nc1ccnc2cc(Cl)ccc12` (stereo not drawn) [CHLOROQUINE], the result was Active.

In the next series the test system is Plasmodium berghei. The series can be described thus: Antimalarial activity against Plasmodium berghei infected in mouse assessed as host survival at 33.3 mg/kg, ip dosed once daily on days 0, 1, and 2 days post infection measured on day 28 post infection relative to untreated control. In kind it is functional, organism-based.
Details: not given
As to `Cc1cc(NCc2cc(Nc3ccnc4cc(Cl)ccc34)ccc2F)nc(N2CCN(C)CC2)n1`, the outcome was Active.

The subject of another series is Plasmodium berghei. The series can be described thus: Antimalarial activity against Plasmodium berghei infected in mouse assessed as mean survival time at 33.3 mg/kg, po dosed once daily on days 0, 1, and 2 days post infection measured on day 28 post infection (reference value: 13.2 days). In kind it is functional.
Details: not given
In the case of `CCN(CC)CCCC(C)Nc1ccnc2cc(Cl)ccc12` (stereo not drawn) [CHLOROQUINE], the MST stood at 28 days.

In the next series the test system is Plasmodium berghei. The series can be described thus: Antimalarial activity against Plasmodium berghei infected in mouse assessed as mean survival time at 11.1 mg/kg, po dosed once daily on days 0, 1, and 2 days post infection measured on day 28 post infection (reference value: 13.2 days). The class given is functional.
Details: not given
As to `CCN(CC)CCCC(C)Nc1ccnc2cc(Cl)ccc12` (stereo not drawn) [CHLOROQUINE], the MST amounted to 28 days.

The subject of a further series is Plasmodium berghei. Put plainly: Antimalarial activity against Plasmodium berghei infected in mouse assessed as mean survival time at 33.3 mg/kg, ip dosed once daily on days 0, 1, and 2 days post infection measured on day 28 post infection (reference value: 13.2 days). In kind it is functional.
Details: not given
On to `Cc1cc(NCc2cc(Nc3ccnc4cc(Cl)ccc34)ccc2F)nc(N2CCN(C)CC2)n1`, for which the MST was 28 days.

The test system of another series is Plasmodium berghei. Put plainly: Antimalarial activity against Plasmodium berghei infected in mouse assessed as mean survival time at 11.1 mg/kg, ip dosed once daily on days 0, 1, and 2 days post infection measured on day 28 post infection (reference value: 13.2 days). The class given is functional.
Details: not given
In the case of `Cc1cc(NCc2cc(Nc3ccnc4cc(Cl)ccc34)ccc2F)nc(N2CCN(C)CC2)n1`, the MST is 19.8 days.

The next series has as its system Plasmodium berghei. The series can be described thus: Antimalarial activity against Plasmodium berghei infected in mouse assessed as parasitemia cure at 11.1 mg/kg, po dosed once daily on days 0, 1, and 2 days post infection measured on day 28 post infection. In kind it is functional, organism-based.
Details: not given
Consider `CCN(CC)CCCC(C)Nc1ccnc2cc(Cl)ccc12` (stereo not drawn) [CHLOROQUINE], for which the outcome was inactive.

Another series deals with Plasmodium berghei. The series can be described thus: Antimalarial activity against Plasmodium berghei infected in mouse assessed as parasitemia cure at 11.1 mg/kg, ip dosed once daily on days 0, 1, and 2 days post infection measured on day 28 post infection. The class given is functional, organism-based.
Details: not given
For `Cc1cc(NCc2cc(Nc3ccnc4cc(Cl)ccc34)ccc2F)nc(N2CCN(C)CC2)n1`, the outcome was inactive.

In the next series the test system is Heme. Put plainly: Binding affinity to monomeric heme assessed as decrease in the Soret band at pH 5.6 by spectrophotometric titration analysis.
Details: not given
Turning to `Cc1cc(NCc2cc(Nc3ccnc4cc(Cl)ccc34)ccc2F)nc(N2CCN(C)CC2)n1`, the outcome was Active.

In another series the test system is Heme. Put plainly: Binding affinity to monomeric heme assessed as decrease in the Soret band at pH 7.4 by spectrophotometric titration analysis.
Details: not given
For the compound `Cc1cc(NCc2cc(Nc3ccnc4cc(Cl)ccc34)ccc2F)nc(N2CCN(C)CC2)n1`, the outcome was Active.

Another series concerns Heme. The series can be described thus: Binding affinity to monomeric heme assessed as mole fraction for 1:1 binding stoichiometry with monomeric heme at pH 5.6 by spectrophotometric titration analysis.
Details: not given
`Cc1cc(NCc2cc(Nc3ccnc4cc(Cl)ccc34)ccc2F)nc(N2CCN(C)CC2)n1`: the Activity (mole fraction) was determined as 0.5.

For the next series, the system named is Heme. Put plainly: Binding affinity to monomeric heme assessed as mole fraction for 1:1 binding stoichiometry with monomeric heme at pH 7.4 by spectrophotometric titration analysis.
Details: not given
Regarding `Cc1cc(NCc2cc(Nc3ccnc4cc(Cl)ccc34)ccc2F)nc(N2CCN(C)CC2)n1`, the Activity (mole fraction) came to 0.5.

System in the next series: not listed separately
The series can be described thus: Half life human liver microsomes in the presence of NADPH. In kind it is ADME, Microsome.
Details: not given
On to `Cc1cc(NCc2cc(Nc3ccnc4cc(Cl)ccc34)ccc2F)nc(N2CCN(C)CC2)n1`, for which the half-life came to 16.7 min.

System in another series: not listed separately
The series can be described thus: Intrinsic clearance human liver microsomes in the presence of NADPH. In kind it is ADME, Microsome. Conditions: read-out: CLH. Background: Microsomes from liver hold many membrane-bound enzymes, among them those of drug oxidation.
On to `Cc1cc(NCc2cc(Nc3ccnc4cc(Cl)ccc34)ccc2F)nc(N2CCN(C)CC2)n1`, for which the microsomal CLint worked out at 82.8 µL/min/mg.

The next series relates to Plasmodium falciparum. Put plainly: microbe, parasite or virus in culture. The following applies: NF54, 48 h.
Description: Antiplasmodial activity against chloroquine-sensitive Plasmodium falciparum NF54 incubated for 48 hrs by parasite lactate dehydrogenase assay
On to `Cc1cc(NCc2cc(Nc3ccnc4cc(Cl)ccc34)ccc2F)nc(N2CCCCCC2)n1`, for which the IC50 came out at 16.9 nM.
`Cc1cc(N2CCCC2)nc(NCc2cc(Nc3ccnc4cc(Cl)ccc34)ccc2F)n1` registered an IC50 of 89 nM.
With `Cc1cc(NCc2cc(Nc3ccnc4cc(Cl)ccc34)ccc2F)nc(N2CCN(C)CC2)n1`, the midpoint of inhibition, the IC50, lay at 12.5 nM.
In turn, `C[C@H]1[C@H](OC(=O)CCC(=O)O)O[C@@H]2O[C@@]3(C)CC[C@H]4[C@H](C)CC[C@@H]1[C@@]24OO3` [ARTESUNATE] registered an IC50 of 10 nM.
`Cc1cc(NCc2cc(Nc3ccnc4cc(Cl)ccc34)ccc2F)nc(N2CCCCC2)n1` registered an IC50 of 13.8 nM.
The compound `Cc1cc(N2CCCCCC2)nc(NCc2cc(Nc3ccnc4cc(Cl)ccc34)ccc2F)n1` registered an IC50 of 148 nM.
Same read-out and setting: to `N#Cc1cc(Nc2ccnc3cc(Cl)ccc23)ccc1F` belongs greater than 3360 nM; to `Cc1cc(Cl)nc(NCc2cc(Nc3ccnc4cc(Cl)ccc34)ccc2F)n1`, 231 nM; to `Cc1cc(NCc2cc(Nc3ccnc4cc(Cl)ccc34)ccc2F)nc(Cl)n1`, 183 nM.
As for `CCN1CCN(c2nc(C)cc(NCc3cc(Nc4ccnc5cc(Cl)ccc45)ccc3F)n2)CC1`, the IC50 was 11.2 nM.

The next series concerns Plasmodium falciparum. The series can be described thus: microbe, parasite or virus in culture. Conditions: Dd2, 48 h.
Description: Antiplasmodial activity against chloroquine-resistant Plasmodium falciparum Dd2 incubated for 48 hrs by parasite lactate dehydrogenase assay
Turning to `Cc1cc(NCc2cc(Nc3ccnc4cc(Cl)ccc34)ccc2F)nc(N2CCCCCC2)n1`, the IC50 amounted to 27.2 nM.
`Cc1cc(N2CCCC2)nc(NCc2cc(Nc3ccnc4cc(Cl)ccc34)ccc2F)n1` had an IC50 of 74.9 nM.
As for `Cc1cc(NCc2cc(Nc3ccnc4cc(Cl)ccc34)ccc2F)nc(N2CCN(C)CC2)n1`, 5.24 nM corresponded to half-maximal inhibition (IC50).
Compound `C[C@H]1[C@H](OC(=O)CCC(=O)O)O[C@@H]2O[C@@]3(C)CC[C@H]4[C@H](C)CC[C@@H]1[C@@]24OO3` [ARTESUNATE] came in with an IC50 of 13 nM.
The compound `Cc1cc(NCc2cc(Nc3ccnc4cc(Cl)ccc34)ccc2F)nc(N2CCCCC2)n1` registered a 50% inhibitory concentration (IC50) of 17.2 nM.
As for `Cc1cc(N2CCCCCC2)nc(NCc2cc(Nc3ccnc4cc(Cl)ccc34)ccc2F)n1`, half-maximal inhibition (IC50) required 67.5 nM.
On the same count and under the same terms, to `N#Cc1cc(Nc2ccnc3cc(Cl)ccc23)ccc1F` belongs 3200 nM; to `Cc1cc(Cl)nc(NCc2cc(Nc3ccnc4cc(Cl)ccc34)ccc2F)n1`, 297 nM.
Regarding `Cc1cc(NCc2cc(Nc3ccnc4cc(Cl)ccc34)ccc2F)nc(Cl)n1`, the IC50 was 214 nM.
With `CCN1CCN(c2nc(C)cc(NCc3cc(Nc4ccnc5cc(Cl)ccc45)ccc3F)n2)CC1`, the concentration for half-maximal inhibition (IC50) amounted to 7.63 nM.

The values above are taken from ChEMBL document CHEMBL4433224, “Hybridization of Fluoro-amodiaquine (FAQ) with Pyrimidines: Synthesis and Antimalarial Efficacy of FAQ-Pyrimidines” (ACS Med Chem Lett, 2019).
